Patent publication US20150094328A1, “4-Azaindole Derivatives” (Eisai R&D Management Co., Ltd., priority 2013, published 2015)

System: male Crlj: WI rats
Assay: Morris water maze test in ibotenic acid-induced learning disability model
Format: in vivo, rat
Procedure: Ibotenic acid at 5 μg/0.5 μL was injected into both basal nuclei of 8-week old male Crlj: WI rats, and a Morris water maze test was performed 10-14 days after ibotenic acid injection. It has been reported that rats in which basal forebrain was lesioned by ibotenic acid injection show learning disability in the Morris water maze test. (Pharmacopsychiat, 1999, 32, 242-247). The test is considered a model of spatial learning and memory.
Learning trials were performed twice a day at an interval of 3 hours for 4 days (8 times in total), and probe trials were performed once the day after completion of the learning trials. Each test compound was dissolved in a 0.5% methylcellulose in water and orally administered 1 hour before the first trial on each day of the learning trials and 1 hour before the trial on the day of the probe trials. […]
In learning trials, the animal was put into water and goal latency and swimming distance to reach the platform were measured (measurement time: 90 seconds at the longest) by a video image behavioral analysis device (Etho Vision XT, Noldus Information Technology Inc.). […]
In probe trials, the platform was removed from the pool. The animal was put into water, and the swimming time in the quadrant where the platform had been located in the learning trials and the frequency of entry into the platform area where the platform had been located in the learning trials were measured by Etho Vision XT.
Each value was shown as an average and a standard error (n=10). The statistical significance between a control group and a vehicle group was analyzed by the independent t-test. The statistical significance between the vehicle group and each sample group was analyzed by one-way analysis of variance and then by Dunnett's multiple comparison test. […]

Measured: Goal latency [mean ± SEM]

O=C(N[C@H]1CCCC[C@@H]1O)c1cn(Cc2ccc(F)cc2)c2cccnc12 [Example 5, 1-(4-Fluorobenzyl)-N-((1S,2S)-2-hydroxycyclohexyl)-1H-pyrrolo[3,2-b]pyridine-3-carboxamide]
[90 ± 0.00] sec.: Trial 1, 0.1 mg/kg p.o. | Trial 1, 0.3 mg/kg p.o. | Trial 2, 0.1 mg/kg p.o.
